In patent publication US12570657B2, “Mesylate salts of heterocyclic cytokinins, compositions containing these derivatives and use thereof” (UNIVERZITA PALACKEHO V OLOMOUCI, priority 2020, dated 2026):

How the values were obtained:
[1] = system: G361 (malignant melanoma); test: In vitro cytotoxicity, Calcein AM assay, G-361; format: cell-based; conditions: Homo sapiens, 72 h, 3-day Calcein-AM assay
Excerpt: Because toxic compounds adversely affect cell metabolic processes, many standard cytotoxicity assays are based on measuring the rate of metabolism of various artificial substrates. The resulting product is then quantified, for example, by spectrometry. Assays can be easily modified for use in 96-well plates, A microtiter assay based on the quantification of Calcein AM metabolism was used to evaluate the cytotoxicity of cytokinins, for example meta-topolin, ortho-topolin, kinetin, BAP or its mesylate salts, but also a number of other cytokinin mesylate derivatives according to the invention. The test is widely used in drug screening programs and in chemosensitivity testing. In living cells, Calcein AM is enzymatically hydrolyzed and the accumulation of the resulting calcein is manifested by green fluorescence. The following cell lines—RPMI 8226 (multiple myeloma), CEM (T-lymphoblastic leukemia), K562 (chronic myeloid leukemia), HL-60 (promyelocytic, leukemia), MCF-7 (breast adenocarcinoma), HeLa (cervical cancer), G361 (malignant melanoma), HOS (human osteosarcoma) and BJ (human foreskin fibroblasts)—were obtained from the American Type Culture Collection (Manassas, VA, USA). These cells were maintained in standard DMEM or RPMI medium (Sigma, MO, USA) supplemented with heat-inactivated fetal bovine serum (10%) with 2 mM L-glutamine and penicillin-streptomycin (1%) under standard cell culture conditions (37° C., 5% CO2 in a humid environment) and subcultured two or three times a week using a standard trypsinization procedure. Approximately 10,000 cells in 80 μl of medium were seeded in a 96-well microtiter plate. After 12 hours of incubation, the compounds to be tested were added in 20 μl aliquots. Control cultures were treated with DMSO alone. […] Serial, 3-fold dilutions (six in total, peak concentrations in 166 μM incubations) of each compound were tested. After 72 hours of incubation, Calcein AM solution (Molecular Probes) was added to a final concentration of 1 μg/ml and the cells were incubated for another hour. Free calcein fluorescence was then quantified using a Fluoroscan Ascent fluorometer (Microsystems), and the percentage of surviving cells in each well was calculated by dividing the OD obtained from each cell by the exposed cells by the mean OD obtained from control wells×100%, Finally, IC50 values (concentration causing a 50% decrease in cellular esterase activity) were calculated for each compound generated from dose-response curves (Krys̆tof et al., 2005, Bioorg. Med. Chem. Lett. 12, 3283-3286). The IC50 values reported here are averages obtained from at least three independent experiments, where the individual replication values fell within 20% of the average. Growth inhibition was calculated using the following equation: […](mean FDwell exposed to drug−mean FDblank)/(mean FDcontrol well−mean FDblank)×100%.
Cytoxicity of compounds was tested on panel of cell lines of different histogenetic and species origin.

[2] = system: CEM (T-lymphoblastic leukemia); test: In vitro cytotoxicity, Calcein AM assay, CEM; format: cell-based; conditions: 3-day Calcein-AM assay
In short: (§1)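 Cytotoxicity is scored as loss of Calcein AM metabolism: viable cells hydrolyse the dye to fluorescent calcein. Compounds act for 72 h on cells seeded 12 h earlier in serum-supplemented medium, and the dye (1 μg/ml final) is loaded for the last hour.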

[3] = system: HL-60 (promyelocytic, leukemia); test: In vitro cytotoxicity, Calcein AM assay, HL60; format: cell-based; conditions: Homo sapiens, HL-60, 72 h, 3-day Calcein-AM assay
In short: as §1

rose explants = test: In vitro and post vitro multiplication and rooting of rose; format: in vivo, Rosa multiflora; conditions: for Number of roots per plant / Overall length of plant (cm): Ex vitro, after four weeks of acclimatising in peat; for Number of new shoots per explant / Number of roots per explant / Overall length of explant (cm) / number of flowers per explant: In vitro, 10 μM cytokinin, 8 weeks
Experimental: The aim of this experiment was to test whether the new compounds are of practical use in tissue culture practice. The multiplication rate was investigated and the post vitro effects on rooting were examined Rosa hybrida (pot rose cultivar) was cultured in 350 ml vessels with a screw on polycarbonate lid. Each culture vessel contained 100 ml autoclaved medium (120° C., 20 min). The cultures were maintained at 23±2° C. under a 16 h photoperiod at 40 μM·m^−2 s^−1 PAR. The basal medium (BMR) contained Murashige and Skoog (1962) macroelements, microelements and vitamins, 95 μM NaFeEDTA, 555 μM myo-inositol, 111 mM sucrose, 1.332 mM glycine, 684 μM L-glutamine and 7 g/l agar. This medium was supplemented with 10 μM BAP, mT, or 3MeOBAP, or the corresponding mesylate salts. The control medium didn't contain any cytokinin After a culture period of 8 weeks, the number of induced shoots per explant was determined, as well as root number/explant and total root length/explant. The roots were removed and the explants (shoot clusters) were planted in unfertilised peat. After four weeks of acclimatising in a fog unit, root number and root length was determined. As expected, a cytokinin free medium yielded almost no new shoots. The original shoot explant grew out as a good quality single shoot that rooted very well. […] Explants growing on cytokininin mesylates were characterized by a high multiplication index (a large number of new shoots) and were more rooted in comparison with free bases. The use of cytokinin mesylates led to an increase in all monitored parameters in plant culture compared to free cytokinin bases.

[4] = system: MCF-7 (breast adenocarcinoma); test: In vitro cytotoxicity, Calcein AM assay, MCF7; format: cell-based; conditions: 3-day Calcein-AM assay
In short: as §1

skin fibroblasts BJ = test: Cytotoxicity for non-cancer cells, resazurine reduction assay, BJ; conditions: human, 72 h
Experimental: (§2) It is used for viability testing of both bacterial and eukaryotic cells. […] Cultivation medium was DMEM with 10% FBS. Before the experiment, the cells were subcultured for 2 weeks. For the cytotoxicity evaluation, the cells were trypsinized and pipetted into 96 well plates (5000 cells per well in 80 microliters). After 24 hours, 5× concentrated solutions of the tested compounds in the medium were added. […] IC50 values were calculated from dose response curves using drc library for R programming environment.

keratinocytes HaCaT = test: Cytotoxicity for non-cancer cells, resazurine reduction assay, HaCaT
Experimental: as §2

[5] = resazurin, 72 hour treatment, HaCaT

SMILES: COc1cccc(CNc2ncnc3nc[nH]c23)c1 [3MeOBAP, 6-(3-methoxybenzylamino)purine]
- IC50 [1]: 125 µM
- IC50 ([2]; 72 h): > 167 µM
- IC50 [3]: > 167 µM
- Number of roots per plant (rose explants): 1.7
- Overall length of plant (cm) (rose explants): 4.1 cm
- Number of new shoots per explant (rose explants): 4.3
- Number of roots per explant (rose explants): 0.0
- Overall length of explant (cm) (rose explants): 0.0 cm
- number of flowers per explant (rose explants): 0.03
- IC50 ([4]; Homo sapiens, MCF7, 72 h): > 167 µM

SMILES: CS(=O)(=O)O.c1ccc(CNc2ncnc3nc[nH]c23)cc1 [BAP mesylate, 6-benzylaminopurine mesylate]
- Cytotoxicity for Fibroblasts (GI20) BJ (skin fibroblasts BJ): >100 µM
- Cytotoxicity for Fibroblasts (GI20) HaCaT (keratinocytes HaCaT; [5]): >100 µM
- Number of roots per plant (rose explants): 0.9
- Overall length of plant (cm) (rose explants): 1.4 cm
- Number of new shoots per explant (rose explants): 4.1
- Number of roots per explant (rose explants): 0.0
- Overall length of explant (cm) (rose explants): 0.0 cm
- number of flowers per explant (rose explants): 0.00
- IC50 ([4]; mesylate): > 167 µM

SMILES: c1ccc(CNc2ncnc3nc[nH]c23)cc1 [BAP, 6-benzylaminopurine]
- Cytotoxicity for Fibroblasts (GI20) BJ (skin fibroblasts BJ): 137.5 µM
- IC50 ([2]; 72 h): > 167 µM
- IC50 [3]: > 167 µM
- Cytotoxicity for Fibroblasts (GI20) HaCaT (keratinocytes HaCaT; human, 72 h): >100 µM
- Number of roots per plant (rose explants): rooted badly
- Overall length of plant (cm) (rose explants): 1.1 cm
- Number of roots per plant (rose explants; listed as 6-benzylaminopurine): 0.6
- Number of new shoots per explant (rose explants): high shoot multiplication rate
- Number of roots per explant (rose explants): 0.0
- Overall length of explant (cm) (rose explants): 0.0 cm
- number of flowers per explant (rose explants): 0.00
- Number of new shoots per explant (rose explants; listed as 6-benzylaminopurine): 3.8
- IC50 ([4]; Homo sapiens, MCF7, 72 h): 166 µM

SMILES: CS(=O)(=O)O.Oc1cccc(CNc2ncnc3nc[nH]c23)c1 [mT mesylate, 6-(3-hydroxybenzylamino)purine mesylate]
- Cytotoxicity for Fibroblasts (GI20) BJ (skin fibroblasts BJ): >100 µM
- IC50 ([2]; mesylate): > 167 µM
- Cytotoxicity for Fibroblasts (GI20) HaCaT (keratinocytes HaCaT; [5]): >100 µM
- Number of roots per plant (rose explants): 1.8
- Overall length of plant (cm) (rose explants): 4.3 cm
- Number of new shoots per explant (rose explants): 2.4
- Number of roots per explant (rose explants): 0.0
- Overall length of explant (cm) (rose explants): 0.0 cm
- number of flowers per explant (rose explants): 0.17

SMILES: Oc1cccc(CNc2ncnc3nc[nH]c23)c1 [meta-topolin (mT), 6-(3-hydroxybenzylamino)purine]
- Cytotoxicity for Fibroblasts (GI20) BJ (skin fibroblasts BJ): >100 µM
- IC50 [1]: > 167 µM
- IC50 ([2]; 72 h): 90.1 µM
- IC50 [3]: 79.2 µM
- Cytotoxicity for Fibroblasts (GI20) HaCaT (keratinocytes HaCaT; [5]): >100 µM
- Number of roots per plant (rose explants): 1.4
- Overall length of plant (cm) (rose explants): 3.8 cm
- Number of new shoots per explant (rose explants): 2.1
- Number of roots per explant (rose explants): 0.0
- Overall length of explant (cm) (rose explants): 0.0 cm
- number of flowers per explant (rose explants): 0.16
- IC50 ([4]; Homo sapiens, MCF7, 72 h): > 167 µM

SMILES: Oc1ccccc1CNc1ncnc2nc[nH]c12 [ortho-topolin (oT), 6-(2-hydroxybenzylamino)purine]
- Cytotoxicity for Fibroblasts (GI20) BJ (skin fibroblasts BJ): 98.7 µM
- IC50 [1]: 103 µM
- IC50 ([2]; 72 h): 69.2 µM
- IC50 [3]: 78 µM
- Cytotoxicity for Fibroblasts (GI20) HaCaT (keratinocytes HaCaT; [5]): >100 µM
- IC50 ([4]; Homo sapiens, MCF7, 72 h): > 167 µM
